Results: patent publication US9586896B2, “Nitroxyl donors with improved therapeutic index” (Cardioxyl Pharmaceuticals, Inc., priority 2013, dated 2017)

Tests used:
[1] = Nitroxyl production via N2O quantification (GC headspace analysis); assay type: physicochemical; settings: PBS, 37° C.
Description: Nitrous oxide (N2O) is produced via the dimerization and dehydration of HNO, and is the most common marker for nitroxyl production (Fukuto et al., Chem. Res. Toxicol. 18:790-801 (2005)). […] Using either nitrous oxide gas or Angeli's salt (AS) as a standard, the relative amounts of N2O released from compounds of the disclosure was examined via gas chromatography (GC) headspace analysis.
A procedure for determining the relative amounts of N2O released from compounds of the disclosure is as follows. GC was performed on an Agilent gas chromatograph equipped with a split injector (10:1 splitting), microelectron capture detector, and a HP-MOLSIV 30 m×0.32 mm×25 μm molecular sieve capillary column. Helium was used as the carrier (4 mL/min) gas and nitrogen was used as the make-up (20 mL/min) gas. The injector oven and the detector oven were kept at 200° C. and 325° C., respectively. All nitrous oxide analyses were performed with the column oven held at a constant temperature of 200° C.
All gas injections were made using an automated headspace analyzer. Vial pressurization was 15 psi. The analyzer's sample oven, sampling valve, and transfer line were kept at 40° C., 45° C., and 50° C., respectively. The oven stabilization, vial pressurization, loop fill, loop equilibration, and sample injection times were 1.00 min., 0.20 min., 0.20 min., 0.05 min., and 1.00 min., respectively.
All determinations used a batch of nominal 20 mL headspace vials with volumes pre-measured for sample uniformity (actual vial volume varied by ≦2.0% relative standard deviation (n=6)). The average vial volume for the batch was determined from six randomly-selected vials by calculating the weight difference between the capped and sealed empty (i.e., air-filled) vial and the capped and sealed deionized water-filled vial using the known density of deionized water, then averaging. Blanks were prepared by sealing and capping two vials then purging each for 20 seconds with a gentle argon stream. […]

normal canines = experiment: Hemodynamic efficacy (PV loop analysis) in normal canines; assay type: in vivo, beagle dogs; settings: i.v. infusion
Method: The cardiovascular effects of nitroxyl donors were examined by means of pressure-volume (PV) curve (loops) analysis in conscious, sling-restrained beagle dogs. Animals were allowed free access to drinking water and a commercial canine diet under standard laboratory conditions. Fluorescent lighting was provided via an automatic timer for approximately 12 hours per day. On occasion, the dark cycle was interrupted intermittently due to study-related activities. Temperature and humidity were monitored and recorded daily and maintained to the maximum extent possible between 64° F. and 84° F. and 30% to 70%, respectively. The dogs were acclimated for a period of at least 1 week prior to surgery. Following surgery and recovery the animals were acclimated to sling restraint for a period up to 4.5 hours. Animals were fasted overnight prior to surgery.
Once a stable (surgical) plane of anesthesia had been established, a left-thoracotomy was performed (under strict aseptic conditions) and each animal was chronically instrumented with sono-micrometry crystals providing left-ventricular (LV) dimensions/volume. Additionally, a fluid-filled catheter and a solid-state monometer were placed in the left ventricle for pressure monitoring. A fluid-filled catheter was placed in the right ventricle (RV) and the aorta (Ao) for pressure monitoring/test article administration. […] The catheters/wires were aseptically tunneled and externalized between the scapulae. Over the course of the study, fluid-filled catheters were regularly (at least once weekly) flushed with a locking-solution in order to prevent both clotting and bacterial growth (2-3 mL of Taurolidine-Citrate solution, TCS-04; Access Technologies).
The animals (normal or heart failure) were studied during treatment with both vehicle (control) and a nitroxyl donor (either CXL-1020, a compound of formula (1) or a compound of formula (2)). At each dosing period, conscious sling-restrained animals were continuously monitored for up to two to three hours. Following hemodynamic stabilization, infusion of the vehicle was started. […] Infusion of the vehicle was continued and after 30 min another (baseline) set of hemodynamic data was collected. Following collection of baseline hemodynamic data, infusion of the nitroxyl donor compound being tested was initiated and derived hemodynamic/functional parameters were obtained/performed at up to four (4) time points selected from the following: at 30, 60, 90, 120, and 180 minutes after the onset of vehicle/test compound infusion. For the placebo or time-control treatment group, each animal was administered an infusion of an appropriate placebo for up to 180 minutes. In all cases, the test compound was delivered at a constant intravenous infusion rate of 1 mL/kg/hr and was compared at a molar equivalent dose rate.
The resulting left-ventricular pressure and volume data were analyzed in order to generate relationships representing the contractile and energetic state of the myocardium. Systolic arterial pressure (SAP), diastolic arterial pressure (DAP), and mean arterial pressure (MAP) were collected. Left-ventricular mechanical and/or geometrical indices were obtained from the pressure (ESP, EDP, dP/dt max/min, time-constant of relaxation-tau [based on mono-exponential decay with non-zero asymptote]) and volume (end-systolic volume (ESV), end diastolic volume (EDV), stroke volume (SV)) signal. In addition, the following measurements were derived from left-ventricular pressure-volume data (PV loops) generated during brief periods of preload reduction: pressure volume area (PVA) and stroke work (SW), end-systolic (ESPVR) and end-diastolic (EDPVR) pressure volume relationships, and end systolic pressure and stroke volume relationship (arterial elastance (Ea)). Representative data obtained from studies in normal dogs and heart failure dogs is shown in Table 5 and Table 6, respectively. A SVR (systemic vascular resistance) decrease correlates with vasodilation.

[2] = dose rate 50 (μmol/kg/min [sic])

Row | Structure (SMILES) | Relative N2O Yield (90 minute incubation) [1] | Relative N2O Yield (360 minute incubation) ([1]; 360 minute incubation) | Tau (% Change from Baseline) (normal canines; dose rate 100 (μmol/kg/min [sic])) | EDV (% Change from Baseline) (normal canines; [2]) | ESP (% Change from Baseline) (normal canines; [2]) | ESPVR (% Change from Baseline) (normal canines; [2]) | HR (% Change from Baseline) (normal canines; [2]) | PRSW (% Change from Baseline) (normal canines; [2]) | SW (% Change from Baseline) (normal canines; [2]) | Tau (% Change from Baseline) (normal canines; [2])
1 | CS(=O)(=O)c1cccc(S(=O)(=O)NO)c1 [(2), N-Hydroxy-3-methanesulfonylbenzene-1-sulfonamide] | 82% | 94% | −6.40 ± 7.11% | – | – | – | – | – | – | –
2 | Cc1ccc(S(=O)(=O)NO)o1 [Compound (1), N-Hydroxy-5-methylfuran-2-sulfonamide] | 52% | – | – | −6 ± 2% | −18 ± 2% | 19 ± 1% | −4 ± 2% | 12 ± 1% | −11 ± 4% | −6 ± 1%
